One assay has as its target T1, muscarinic M2 receptor (Homo sapiens, UniProt P08172).
T1 construct: expressed in transfected cells
T1 sequence (P08172 1-466): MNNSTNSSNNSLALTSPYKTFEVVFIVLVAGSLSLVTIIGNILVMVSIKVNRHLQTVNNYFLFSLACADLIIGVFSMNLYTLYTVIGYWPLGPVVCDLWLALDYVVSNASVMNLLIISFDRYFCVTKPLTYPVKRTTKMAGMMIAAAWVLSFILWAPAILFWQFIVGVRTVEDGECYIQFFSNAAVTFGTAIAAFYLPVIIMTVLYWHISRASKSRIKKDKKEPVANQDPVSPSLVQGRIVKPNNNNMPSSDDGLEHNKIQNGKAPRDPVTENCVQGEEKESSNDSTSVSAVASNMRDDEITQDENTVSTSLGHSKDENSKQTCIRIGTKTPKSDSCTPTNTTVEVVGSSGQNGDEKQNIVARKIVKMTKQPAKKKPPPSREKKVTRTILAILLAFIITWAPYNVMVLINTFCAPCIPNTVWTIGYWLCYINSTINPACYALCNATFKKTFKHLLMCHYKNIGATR
Description: R-SAT functional screen, M2. The settings on record: R-SAT; for Emax: read-out: M2 eff (efficacy); for EC50: read-out: M2 pEC50 (converted). It counts as cell-based. Here is the method:
(§1) Several compounds disclosed herein were evaluated for activity at muscarinic receptors using Receptor Selection and Amplification Technology (R-SAT) as described in U.S. Pat. No. 5,707,798, the disclosure of which is incorporated herein by reference in its entirety. The efficacy (eff) and potency (expressed as pEC50) of these compounds are presented in Table 1 at M1, M2, and M3 receptors.

Another assay concerns the target T2, muscarinic M1 receptor (Homo sapiens, UniProt P11229).
T2 construct: expressed in transfected cells
T2 sequence (P11229 1-460): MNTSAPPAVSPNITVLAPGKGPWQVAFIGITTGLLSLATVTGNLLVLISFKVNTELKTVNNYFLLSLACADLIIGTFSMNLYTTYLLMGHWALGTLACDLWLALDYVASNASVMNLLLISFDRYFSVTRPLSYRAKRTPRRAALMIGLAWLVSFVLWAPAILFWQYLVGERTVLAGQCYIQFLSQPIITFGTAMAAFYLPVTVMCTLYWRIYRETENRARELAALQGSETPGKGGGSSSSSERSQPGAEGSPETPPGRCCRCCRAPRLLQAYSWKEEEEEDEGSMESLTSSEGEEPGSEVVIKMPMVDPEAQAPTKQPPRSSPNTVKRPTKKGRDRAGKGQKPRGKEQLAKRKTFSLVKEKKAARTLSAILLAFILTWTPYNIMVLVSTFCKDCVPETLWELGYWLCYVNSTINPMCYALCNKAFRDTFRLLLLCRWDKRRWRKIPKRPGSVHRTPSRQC
Nature of the assay: R-SAT functional screen, M1. It counts as cell-based. The settings on record: R-SAT; for Emax: read-out: M1 eff (efficacy). Here is the method: as §1

Data on 34 molecules can be found in patent US20090239840A1, “AMINO SUBSTITUTED DIARYL[a,d]CYCLOHEPTENE ANALOGS AS [sequence] AGONISTS AND METHODS OF TREATMENT OF NEUROPSYCHIATRIC DISORDERS” (ACADIA PHARMACEUTICALS, INC., priority 2003, published 2009).

Each structure is given as a SMILES string.

As to `Clc1ccc2c(c1)N=C(N1CCNCC1)c1ccccc1N2Cc1ccccc1`, the Emax at muscarinic M2 receptor was 16%; on muscarinic M1 receptor it was 41%. For the same molecule, on muscarinic M1 receptor (read-out: M1 pEC50 (converted)), the EC50 was 501 nM.

On to `C[C@@H]1CN(C2=Nc3cc(Cl)ccc3Nc3ccccc32)[C@@H](C)CN1` (relative stereo) [8-Chloro-11-(trans-2,5-dimethyl-piperazin-1-yl)-5H-dibenzo[b,e][1,4]diazepine], for which the Emax at muscarinic M2 receptor was 24%; on muscarinic M1 receptor it was 8%.

In the case of `Clc1ccc2c(c1)N=C(N1CCNCC1)c1c(Cl)cccc1N2` [1,8-Dichloro-11-(piperazin-1-yl)-5H-dibenzo[b,e][1,4]diazepine], at muscarinic M2 receptor, the Emax is 84% and the EC50 was 2000 nM. As to `NC1CCN(C2=Nc3cc(Cl)ccc3Nc3ccccc32)CC1` [1-(8-Chloro-5H-dibenzo[b,e][1,4]diazepin-11-yl)-piperidine-4-yl-amine], the Emax at muscarinic M2 receptor is 95%; at muscarinic M1 receptor, 6%. Also, the EC50 at muscarinic M2 receptor is 2510 nM. On the same counts, the results for `NC1CCN(C2=Nc3cc(Cl)ccc3Nc3ccccc32)C1` (stereo not drawn) [1-(8-Chloro-5H-dibenzo[b,e][1,4]diazepin-11-yl)-pyrrolidin-3-yl-amine] are 36%, 8% and 3160 nM. On to `Clc1ccc2c(c1)Nc1ccc(Cl)cc1C(N1CCNCC1)=N2` [2,7-Dichloro-11-(piperazin-1-yl)-5H-dibenzo[b,e][1,4]diazepine], for which the Emax on muscarinic M2 receptor was -14%; on muscarinic M1 receptor, -2%.

As to `Brc1ccc2c(c1)N=C(N1CCNCC1)c1cc(Br)ccc1O2` [2,8-Dibromo-11-(piperazin-1-yl)-dibenzo[b,f][1,4]oxazepine], the Emax at muscarinic M2 receptor came to 6%. With `Clc1ccc2c(c1)N=C(N1CCNCC1)c1cc(Cl)ccc1N2` [2,8-Dichloro-11-(piperazin-1-yl)-5H-dibenzo[b,e][1,4]diazepine], the values for the Emax on muscarinic M2 receptor and on muscarinic M1 receptor were 24% and 1%, respectively. For `Clc1ccc2c(c1)Oc1ccc(Br)cc1C(N1CCNCC1)=N2` [2-Bromo-7-chloro-11-(piperazin-1-yl)-dibenzo[b,f][1,4]oxazepine], on muscarinic M2 receptor, the Emax stood at 15%. Still for that read-out and setting: under `Clc1ccc2c(c1)N=C(N1CCNCC1)c1cc(Br)ccc1O2` [2-Bromo-8-chloro-11-(piperazin-1-yl)-dibenzo[b,f][1,4]oxazepine] stands 13%; under `Fc1ccc2c(c1)N=C(N1CCNCC1)c1cc(Br)ccc1O2` [2-Bromo-8-fluoro-11-(piperazin-1-yl)-dibenzo[b,f][1,4]oxazepine], 21%; under `Cc1ccc2c(c1)N=C(N1CCNCC1)c1cc(Br)ccc1O2` [2-Bromo-8-methyl-11-(piperazin-1-yl)-dibenzo[b,f][1,4]oxazepine], 17%. Still for that read-out and setting: under `FC(F)(F)c1ccc2c(c1)N=C(N1CCNCC1)c1cc(Br)ccc1O2` [2-Bromo-11-(piperazin-1-yl)-8-trifluoromethyl-dibenzo[b,f][1,4]oxazepine] stands 11%; under `Brc1ccc2c(c1)C(N1CCNCC1)=Nc1ccccc1O2` [2-Bromo-11-(piperazin-1-yl)-dibenzo[bf][1,4]oxazepine], 9%.

Turning to `FC(F)(F)c1ccc2c(c1)N=C(N1CCNCC1)c1ccc(Cl)cc1N2` [3-Chloro-11-(piperazin-1-yl)-8-trifluoromethyl-5H-dibenzo[b,e][1,4]diazepine], the Emax at muscarinic M1 receptor worked out at 11%. As for `COc1ccc2c(c1)Oc1ccc(C)cc1N=C2N1CCNCC1` [3-Methoxy-8-methyl-11-(piperazin-1-yl)-dibenzo[b,f][1,4]oxazepine], on muscarinic M2 receptor, the Emax turned out to be 45% and the EC50 is 3160 nM. As for `COc1ccc2c(c1)Oc1ccc(C(F)(F)F)cc1N=C2N1CCNCC1` [3-Methoxy-11-(piperazin-1-yl)-8-trifluoromethyl-dibenzo[b,f][1,4]oxazepine], the Emax on muscarinic M2 receptor came out at 17%. For `COc1ccc2c(c1)Oc1ccccc1N=C2N1CCNCC1` [3-Methoxy-11-(piperazin-1-yl)-dibenzo[b,f][1,4]oxazepine], on muscarinic M2 receptor, the Emax worked out at 45% and the EC50 was 2510 nM. On the same counts, the results for `Cc1ccc2c(c1)N=C(N1CCNCC1)c1cccc(C)c1O2` [4,8-Dimethyl-11-(piperazin-1-yl)-dibenzo[b,f][1,4]oxazepine] are 46% and 794 nM.

As to `Cc1cccc2c1Oc1ccccc1N=C2N1CCNCC1` [4-Methyl-11-(piperazin-1-yl)-dibenzo[b,f][1,4]oxazepine], the Emax at muscarinic M2 receptor is 22%. As to `Clc1cccc2c1Nc1ccccc1C(N1CCNCC1)=N2` [6-Chloro-11-(piperazin-1-yl)-5H-dibenzo[b,e][1,4]diazepine], at muscarinic M2 receptor, the Emax was determined as 71%. For `COc1ccc2c(c1)Oc1cc(Cl)ccc1N=C2N1CCNCC1` [7-Chloro-3-methoxy-11-(piperazin-1-yl)-dibenzo[b,f][1,4]oxazepine], on muscarinic M2 receptor, the Emax came out at 44% and the EC50 was 1000 nM. On the same counts, the results for `Cc1cccc2c1Oc1cc(Cl)ccc1N=C2N1CCNCC1` [7-Chloro-4-methyl-11-(piperazin-1-yl)-dibenzo[b,f][1,4]oxazepine] are 28% and 398 nM. On the same counts, the results for `Clc1ccc2c(c1)Oc1ccccc1C(N1CCNCC1)=N2` [7-Chloro-11-(piperazin-1-yl)-dibenzo[b,f][1,4]oxazepine] are 53% and 1260 nM. Turning to `COc1ccc2c(c1)Oc1ccc(Br)cc1N=C2N1CCNCC1` [8-Bromo-3-methoxy-11-(piperazin-1-yl)-dibenzo[b,f][1,4]oxazepine], on muscarinic M2 receptor, the Emax was found to be 21%.

For the molecule `Cc1cccc2c1Oc1ccc(Br)cc1N=C2N1CCNCC1` [8-Bromo-4-methyl-11-(piperazin-1-yl)-dibenzo[b,f][1,4]oxazepine], on muscarinic M2 receptor, the Emax is 48% and the EC50 was 1580 nM. With `COc1ccc2c(c1)Oc1ccc(Cl)cc1N=C2N1CCNCC1` [8-Chloro-3-methoxy-11-(piperazin-1-yl)-dibenzo[b,f][1,4]oxazepine], at muscarinic M2 receptor, the Emax was found to be 19%.

Consider `COc1ccc2c(c1)Oc1ccc(F)cc1N=C2N1CCNCC1` [8-Fluoro-3-methoxy-11-(piperazin-1-yl)-dibenzo[b,f][1,4]oxazepine], for which, at muscarinic M2 receptor, the Emax was determined as 49% and the EC50 is 2510 nM. Turning to `Cc1ccc2c(c1)N=C(N1CCNCC1)c1ccccc1O2` [8-Methyl-11-(piperazin-1-yl)-dibenzo[b,f][1,4]oxazepine], at muscarinic M2 receptor, the Emax was 76% and the EC50 was 3160 nM. On the same counts, the results for `c1ccc(-c2ccc3c(c2)N=C(N2CCNCC2)c2ccccc2N3)cc1` [8-Phenyl-11-(piperazin-1-yl)-5H-dibenzo[b,e][1,4]diazepine] are 104% and 2000 nM. On the same counts, the results for `c1ccc(-c2ccc3c(c2)N=C(N2CCNCC2)c2ccccc2O3)cc1` [8-Phenyl-11-(piperazin-1-yl)-dibenzo[b,f][1,4]oxazepine] are 33% and 1260 nM.

Regarding `FC(F)(F)c1ccc2c(c1)N=C(N1CCNCC1)c1ccccc1O2` [11-(piperazin-1-yl)-8-trifluoromethyl-dibenzo[b,f][1,4]oxazepine], on muscarinic M2 receptor, the Emax was determined as 58% and the EC50 was 1260 nM. `c1ccc2c(c1)N=C(N1CCNCC1)c1ccccc1O2` [11-(piperazin-1-yl)-dibenzo[b,f][1,4]oxazepine]: at muscarinic M2 receptor, the Emax came to 58% and the EC50 is 2000 nM. On to `Clc1ccc2c(c1)N=C(NC1CNC1)c1ccccc1N2` [Acetidin-3-yl-(8-chloro-5H-dibenzo[b,e][1,4]diazepine-11-yl)amine], for which, on muscarinic M2 receptor, the Emax was determined as 17%.
